Legend:
[1] = Antiviral activity against Human Immunodeficiency Virus by Reverse transcriptase assay in CEM-SS cells
[2] = Antiviral activity against Human Immunodeficiency Virus by Reverse transcriptase assay in CEM-SS
[3] = Antiviral activity against Human Immunodeficiency Virus by Reverse transcriptase assay in CEM-SS cells; remark: listed apart in the source
[4] = Antiviral activity against Human Immunodeficiency Virus by Reverse transcriptase assay CEM-SS cells
[5] = Antiviral activity against Human Immunodeficiency Virus by Reverse transcriptase (RT) assay in CEM-SS cells.

Row | IC50 [1] [µM] | Structure (SMILES) | further results
1 | > 100 | FC(F)(F)c1cc(Cn2c(Br)nc3cc(Cl)c(Cl)cc32)cc(C(F)(F)F)c1 [1-(3,5-Bis-trifluoromethyl-benzyl)-2-bromo-5,6-dichloro-1H-benzoimidazole] | 
2 | > 100 | Clc1ccc(Cn2c(Br)nc3cc(Cl)c(Cl)cc32)cc1Cl [2-Bromo-5,6-dichloro-1-(3,4-dichloro-benzyl)-1H-benzoimidazole] | 
3 |  | Cc1ccc(Cn2c(Cl)nc3cc(Cl)c(Cl)cc32)cc1 [2,5,6-Trichloro-1-(4-methyl-benzyl)-1H-benzoimidazole] | IC50 [2]: > 100 µM
4 | 0.0031 | Cc1cn([C@H]2C[C@H](N=[N+]=[N-])[C@@H](CO)O2)c(=O)[nH]c1=O [1-((2R,4S,5S)-4-Azido-5-hydroxymethyl-tetrahydro-furan-2-yl)-5-methyl-1H-pyrimidine-2,4-dione] | 
5 |  | O=[N+]([O-])c1ccc(Cn2c(Cl)nc3cc(Cl)c(Cl)cc32)cc1 [2,5,6-Trichloro-1-(4-nitro-benzyl)-1H-benzoimidazole] | IC50 [3]: > 100 µM
6 | 66 | Cc1cccc(Cn2c(Br)nc3cc(Cl)c(Cl)cc32)c1 [2-Bromo-5,6-dichloro-1-(3-methyl-benzyl)-1H-benzoimidazole] | 
7 |  | COc1ccc(Cn2c(Br)nc3cc(Cl)c(Cl)cc32)cc1 [2-Bromo-5,6-dichloro-1-(4-methoxy-benzyl)-1H-benzoimidazole] | IC50 [4]: > 100 µM
8 |  | O=[N+]([O-])c1cccc(Cn2c(Br)nc3cc(Cl)c(Cl)cc32)c1 [2-Bromo-5,6-dichloro-1-(3-nitro-benzyl)-1H-benzoimidazole] | IC50 [5]: > 32 µM

From BindingDB's records for doi:10.1021/jm970559i (University of Michigan, 1998)
